Values after ≈ are worked out from the molar mass of the structure shown.
What was measured:
[1] = test system: Mycobacterium tuberculosis; assay: Antibacterial activity against Mycobacterium tuberculosis NHN382 clinical isolates measured every 24 hrs for 7 days by MABA assay; assay type: functional
[2] = test system: Mycobacterium tuberculosis; assay: Antibacterial activity against Mycobacterium tuberculosis TN587 clinical isolates measured every 24 hrs for 7 days by MABA assay; assay type: functional
[3] = test system: Mycobacterium tuberculosis; assay: In vivo antibacterial activity against Mycobacterium tuberculosis H37Rv infected in C57BL/6 GKO-mouse assessed as reduction in bacterial load in lungs at 150 mg/kg, ip qd on day 12 post infection for 9 consecutive days; assay type: functional
[4] = test system: Mycobacterium tuberculosis; assay: Antibacterial activity against Mycobacterium tuberculosis H37Rv measured every 24 hrs for 7 days by MABA assay; assay type: functional
[5] = test system: Mycobacterium tuberculosis; assay: In vivo antibacterial activity against Mycobacterium tuberculosis H37Rv infected in C57BL/6 GKO-mouse assessed as reduction in bacterial load in spleens at 150 mg/kg, ip qd on day 12 post infection for 9 consecutive days; assay type: functional
[6] = test system: Mycobacterium tuberculosis; assay: Antibacterial activity against Mycobacterium tuberculosis W210 clinical isolates measured every 24 hrs for 7 days by MABA assay; assay type: functional
Staphylococcus aureus [7] = assay: In vivo antibacterial activity against methicillin-resistant Staphylococcus aureus ATCC 33591 infected in ICR(CD-1) mouse thigh infection model assessed as reduction in colony forming units in thigh muscle at 120 to 160 mg/kg, po measured 24 hrs post infection; assay type: functional
Staphylococcus aureus [8] = assay: Antibacterial activity against Daptomycin-nonsusceptible Staphylococcus aureus isolates after 16 to 24 hrs by microdilution method; assay type: functional
Staphylococcus aureus [9] = assay: Antibacterial activity against methicillin-sensitive Staphylococcus aureus after 16 to 24 hrs by microdilution method; assay type: functional
Staphylococcus aureus [10] = assay: Antibacterial activity against vancomycin-resistant Staphylococcus aureus isolates after 16 to 24 hrs by microdilution method; assay type: functional
[11] = Half life in iv dosed BALB/c mouse administered 1 hr after ABT addition by LC-MS/MS analysis; assay type: ADME, organism-based; conditions: in vivo
Staphylococcus aureus [12] = assay: Antibacterial activity against methicillin-resistant Staphylococcus aureus after 16 to 24 hrs by microdilution method; assay type: functional
Staphylococcus aureus [13] = assay: Antibacterial activity against vancomycin-intermediate Staphylococcus aureus isolates after 16 to 24 hrs by microdilution method; assay type: functional
Staphylococcus aureus [14] = assay: Antibacterial activity against linezolid-nonsusceptible Staphylococcus aureus isolates after 16 to 24 hrs by microdilution method; assay type: functional
[15] = target: T1, Cell division protein FtsZ (Staphylococcus aureus, UniProt P0A031); assay: Inhibition of Staphylococcus aureus ATCC 29213 N-terminal His6-tagged FtsZ GTPase activity expressed in Escherichia coli BL21(DE3) assessed as reduction in inorganic phosphate release preincubated for 10 mins followed by GTP addition after 30 mins
T1 sequence (P0A031 whole entry): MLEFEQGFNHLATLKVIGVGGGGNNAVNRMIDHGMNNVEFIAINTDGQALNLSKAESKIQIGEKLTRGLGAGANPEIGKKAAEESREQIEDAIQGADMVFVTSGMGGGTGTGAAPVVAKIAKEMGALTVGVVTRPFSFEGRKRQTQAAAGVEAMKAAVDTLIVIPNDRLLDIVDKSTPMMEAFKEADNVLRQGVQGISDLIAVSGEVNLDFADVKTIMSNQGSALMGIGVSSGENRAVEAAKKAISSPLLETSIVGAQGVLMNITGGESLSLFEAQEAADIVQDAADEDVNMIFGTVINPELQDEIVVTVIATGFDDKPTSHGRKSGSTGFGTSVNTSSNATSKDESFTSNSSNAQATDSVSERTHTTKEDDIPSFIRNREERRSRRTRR

Escherichia coli [16] = assay: Antibacterial activity against Escherichia coli ATCC 25922 after 18 hrs by broth microdilution assay; assay type: functional; conditions: ATCC 25922, 18 h
Staphylococcus aureus [17] = assay: Antibacterial activity against Staphylococcus aureus ATCC 29213 after 18 hrs by broth microdilution assay; assay type: functional; conditions: ATCC 29213, 18 h
[18] = test system: Mycobacterium tuberculosis; assay: In vivo antibacterial activity against Mycobacterium tuberculosis H37Rv infected in GKO-TB mouse assessed as reduction in bacterial load in lungs at 50 mg/kg, ip or po bid for 10 consecutive days; assay type: functional
[19] = test system: Mycobacterium tuberculosis; assay: Antibacterial activity against Mycobacterium tuberculosis NHN20 clinical isolates measured every 24 hrs for 7 days by MABA assay; assay type: functional
[20] = test system: Mycobacterium tuberculosis; assay: Antimycobacterial activity against Mycobacterium tuberculosis H37Rv after 2 weeks; assay type: functional; conditions: 336 h
Staphylococcus aureus [21] = assay: Antibacterial activity against methicillin-resistant Staphylococcus aureus; assay type: functional
[22] = Toxicity in mouse infected with Staphylococcus aureus assessed as survival at 30 mg/kg, iv or po; assay type: organism-based; conditions: in vivo
Bacillus subtilis [23] = assay: Antibacterial activity against Bacillus subtilis; assay type: functional
Staphylococcus aureus [24] = assay: Antibacterial activity against multi-drug resistant Staphylococcus aureus; assay type: functional
Bacillus subtilis [25] = assay: Inhibition of Bacillus subtilis FtsZ GTPase activity expressed in Escherichia coli BL21(DE3) pLysS at 24 uM preincubated for 15 mins followed by GTP addition after 10 mins by malachite green ammonium molybdate assay relative to control
Staphylococcus aureus [26] = assay: Antibacterial activity against methicillin-resistant Staphylococcus aureus ATCC BAA-41 after 18 hrs by broth microdilution method; assay type: functional; conditions: ATCC BAA-41, 18 h
Klebsiella pneumoniae = assay: Antibacterial activity against Klebsiella pneumoniae ATCC BAA-1144 after 18 hrs by broth microdilution method; assay type: functional; conditions: ATCC BAA-1144, 18 h
Bacillus subtilis [27] = assay: Inhibition of Bacillus subtilis FtsZ polymerization expressed in Escherichia coli BL21(DE3) pLysS at 2 uM preincubated for 15 mins followed by GTP addition by spectrofluorometric analysis relative to control
Staphylococcus aureus [28] = assay: Antibacterial activity against methicillin-sensitive Staphylococcus aureus after 18 hrs by broth microdilution method; assay type: functional
Escherichia coli [29] = assay: Antibacterial activity against Escherichia coli ATCC 25922 after 18 hrs by broth microdilution method; assay type: functional; conditions: ATCC 25922, 18 h
Bacillus subtilis [30] = assay: Inhibition of Bacillus subtilis FtsZ polymerization expressed in Escherichia coli BL21(DE3) pLysS at 5 uM preincubated for 15 mins followed by GTP addition by spectrofluorometric analysis relative to control
Enterococcus faecalis [31] = assay: Antimicrobial activity against vancomycin-sensitive Enterococcus faecalis after 18 hrs by broth microdilution method; assay type: functional
Enterococcus faecalis [32] = assay: Antimicrobial activity against vancomycin-resistant Enterococcus faecalis after 18 hrs by broth microdilution method; assay type: functional
Bacillus subtilis [33] = assay: Inhibition of Bacillus subtilis FtsZ polymerization expressed in Escherichia coli BL21(DE3) pLysS at 10 uM preincubated for 15 mins followed by GTP addition by spectrofluorometric analysis relative to control
[34] = Inhibition of Escherichia coli FtsZ GTPase activity expressed in Escherichia coli BL21 preincubated for 5 mins followed by GTP addition after 15 mins by malachite green based spectrophotometric analysis
[35] = Inhibition of Escherichia coli FtsZ polymerization expressed in Escherichia coli BL21 assessed as reduction in light scattering intensity in presence of GTP by fluorescence spectrometric analysis
[36] = target: T2, Cell division protein FtsZ (Escherichia coli K-12, UniProt P0A9A6); assay: Inhibition of recombinant Escherichia coli K12 FtsZ GTPase activity by malachite green sodium molybdate assay
T2 sequence (P0A9A6 whole entry): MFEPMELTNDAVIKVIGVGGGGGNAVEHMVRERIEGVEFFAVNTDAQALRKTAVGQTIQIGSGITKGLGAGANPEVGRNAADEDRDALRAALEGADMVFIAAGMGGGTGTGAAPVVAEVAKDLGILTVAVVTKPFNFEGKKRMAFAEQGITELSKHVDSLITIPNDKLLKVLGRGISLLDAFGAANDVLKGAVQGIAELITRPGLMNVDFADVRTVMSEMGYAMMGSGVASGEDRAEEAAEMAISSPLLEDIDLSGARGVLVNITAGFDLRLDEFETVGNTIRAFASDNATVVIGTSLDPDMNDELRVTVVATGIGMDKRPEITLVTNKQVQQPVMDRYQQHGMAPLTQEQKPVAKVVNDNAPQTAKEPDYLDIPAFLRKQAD

[37] = target: T2, Cell division protein FtsZ; assay: Inhibition of recombinant Escherichia coli K12 FtsZ assembly by light-scattering assay

**Q.** For `CCCCOC(=O)Nc1cc2nc(C3CCCCC3)[nH]c2cc1N(CC)CC`, which MIC99 [1] is on record?
**A.** 1.25 µg/mL (≈ 3.23 µM)

**Q.** And the MIC99 [2]?
**A.** 1.25 µg/mL (≈ 3.23 µM)

**Q.** And the Activity [3]?
**A.** 0.41 log10CFU

**Q.** What about the MIC99 [4] of the same compound?
**A.** 0.63 µg/mL (≈ 1.63 µM)

**Q.** And the Activity [5]?
**A.** 0.7 log10CFU

**Q.** And the MIC99 [6]?
**A.** 1.25 µg/mL (≈ 3.23 µM)

**Q.** For `CN1CCC(C(=O)NC(=O)c2c(F)ccc(OCc3nc4cc(C(F)(F)F)cnc4s3)c2F)CC1`, which Activity (Staphylococcus aureus [7]) is on record?
**A.** 2 log10CFU

**Q.** With `NC(=O)c1c(F)ccc(OCc2nc3cc(C(F)(F)F)cnc3s2)c1F` as the compound, how does the MIC (Staphylococcus aureus [8]) read?
**A.** 1 µg/mL (≈ 2.57 µM)

**Q.** What about the MIC (Staphylococcus aureus [9]) of the same compound?
**A.** 1 µg/mL (≈ 2.57 µM)

**Q.** What about the MIC (Staphylococcus aureus [10]) of the same compound?
**A.** 1 µg/mL (≈ 2.57 µM)

**Q.** And the half-life [11]?
**A.** 3.65 h

**Q.** And the MIC (Staphylococcus aureus [12])?
**A.** 1 µg/mL (≈ 2.57 µM)

**Q.** And the MIC (Staphylococcus aureus [13])?
**A.** 1 µg/mL (≈ 2.57 µM)

**Q.** What about the MIC (Staphylococcus aureus [14]) of the same compound?
**A.** 1 µg/mL (≈ 2.57 µM)

**Q.** With `CC(C)(C)c1ccc(-c2ncnc3c(CNC(=N)N)cccc23)cc1` as the compound, how does the IC50 [15] read?
**A.** 317 µM

**Q.** What about the MIC (Escherichia coli [16]) of the same compound?
**A.** 897 µM (≈ 299 µg/mL)

**Q.** And the MIC (Staphylococcus aureus [17])?
**A.** 449 µM (≈ 150 µg/mL)

**Q.** What does the source list for `CN(C)c1cc2[nH]c(C3CCCCC3)nc2cc1NC(=O)c1ccc(OC(F)(F)F)c(F)c1F`?
**A.** MIC99 [1]: 0.37 µg/mL (≈ 0.767 µM); Activity [18]: 2.5 - 3.4 log10CFU; MIC99 [2]: 0.31 µg/mL (≈ 0.643 µM); MIC99 [4]: 0.39 µg/mL (≈ 0.808 µM); MIC99 [6]: 0.47 µg/mL (≈ 0.974 µM); MIC99 [19]: 0.39 µg/mL (≈ 0.808 µM)

**Q.** Which IC50 [15] does the source give for `CCC(CC)c1cc([C@H]2CN3CC[C@H]2C[C@@H]3CN)nc(-c2ccncc2)n1` here?
**A.** 37.5 µM

**Q.** And the MIC (Escherichia coli [16])?
**A.** 49.6 µM (≈ 18.1 µg/mL)

**Q.** What about the MIC (Staphylococcus aureus [17]) of the same compound?
**A.** 24.6 µM (≈ 8.99 µg/mL)

**Q.** With `O=c1ccc2ccc(O)cc2o1` [UMBELLIFERONE] as the compound, how does the MIC [20] read?
**A.** 58 µg/mL (≈ 358 µM)

**Q.** For `NC(=O)c1c(F)ccc(OCc2nc3cc(Cl)cnc3s2)c1F`, which MIC (Staphylococcus aureus [21]) is on record?
**A.** 0.5 to 1 µg/mL (≈ 1.41 to 2.81 µM)

**Q.** And the half-life [11]?
**A.** 0.56 h

**Q.** What about the survival [22] of the same compound?
**A.** 100%

**Q.** What about the MIC (Bacillus subtilis [23]) of the same compound?
**A.** 0.5 to 1 µg/mL (≈ 1.41 to 2.81 µM)

**Q.** And the MIC (Staphylococcus aureus [24])?
**A.** 0.5 to 1 µg/mL (≈ 1.41 to 2.81 µM)

**Q.** What does the source list for `CC1=CC(=O)c2c(O)cccc2C1=O` [PLUMBAGIN]?
**A.** inhibition (Bacillus subtilis [25]): 58%; MIC (Staphylococcus aureus [26]): 2 to 8 µg/mL (≈ 10.6 to 42.5 µM); MIC (Klebsiella pneumoniae): 32 to 128 µg/mL (≈ 170 to 680 µM); inhibition (Bacillus subtilis [27]): 26%; MIC (Staphylococcus aureus [28]): 2 to 8 µg/mL (≈ 10.6 to 42.5 µM); MIC (Escherichia coli [29]): 32 to 128 µg/mL (≈ 170 to 680 µM); inhibition (Bacillus subtilis [30]): 33%; MIC (Enterococcus faecalis [31]): 4 to 16 µg/mL (≈ 21.3 to 85 µM); MIC (Enterococcus faecalis [32]): 4 to 16 µg/mL (≈ 21.3 to 85 µM); inhibition (Bacillus subtilis [33]): 45%

**Q.** Which results are given for `COc1cc2ccc(=O)oc2cc1O` [SCOPOLETIN]?
**A.** MIC (Staphylococcus aureus [26]): 2 to 8 µg/mL (≈ 10.4 to 41.6 µM); MIC [20]: 42 µg/mL (≈ 219 µM); MIC (Klebsiella pneumoniae): 32 to 128 µg/mL (≈ 167 to 666 µM); MIC (Staphylococcus aureus [28]): 2 to 8 µg/mL (≈ 10.4 to 41.6 µM); MIC (Escherichia coli [29]): 32 to 128 µg/mL (≈ 167 to 666 µM); IC50 [34]: 23 µM; MIC (Enterococcus faecalis [31]): 4 to 16 µg/mL (≈ 20.8 to 83.3 µM); IC50 [35]: 41 µM

**Q.** Which results are given for `COc1ccc2cc3[n+](cc2c1OC)CCc1cc2c(cc1-3)OCO2.[Cl-]` [BERBERINE CHLORIDE]?
**A.** IC50 [36]: 16 µM; MIC (Staphylococcus aureus [26]): 2 to 8 µg/mL; MIC (Klebsiella pneumoniae): 32 to 128 µg/mL; MIC (Staphylococcus aureus [28]): 2 to 8 µg/mL; MIC (Escherichia coli [29]): 32 to 128 µg/mL; MIC (Enterococcus faecalis [31]): 4 to 16 µg/mL; IC50 [37]: 10 µM

— ChEMBL document CHEMBL3865781, “Recent advances in the discovery and development of antibacterial agents targeting the cell-division protein FtsZ” (Bioorg Med Chem, 2016)
